# Assay results: patent US20220259593A1, “CONTROL OF MAMMALIAN GENE DOSAGE USING CRISPR” (The Regents of the University of California, priority 2019, published 2022)
# What was measured:
# K562 CRISPRi cells [1] = experiment: Perturb-seq pooled growth measurement (sgRNA counts, growth phenotype γ, relative activity); type: cell-based, human; details: γ relative to perfectly matched sgRNA (_00) of the same gene, day 10
# K562 CRISPRi cells [2] = experiment: as above; type: cell-based, human; details: for gamma_day5 / gamma_day10: pooled growth phenotype γ of the Perturb-seq sgRNA; for gamma_day5: day 5, K562 CRISPRi cells; for gamma_day10: day 10, K562 CRISPRi cells; for relative_activity_day5: γ relative to perfectly matched sgRNA (_00) of the same gene, day 5
# Summary of the method: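 CRISPRi K562 cells from the Perturb-seq transduced pool; 500,000-cell samples taken days two, seven and twelve post-transduction. sgRNA amplicons from genomic DNA sequenced; growth phenotypes from normalized sgRNA abundances at days seven and twelve versus day two. Relative activity assigned from day seven (five days' growth).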
Substance,relative_activity_day10 (K562 CRISPRi cells [1]),gamma_day5 (K562 CRISPRi cells [2]),gamma_day10 (K562 CRISPRi cells [2]),relative_activity_day5 (K562 CRISPRi cells [2])
"RAN_ + _131356438.23-P1P2_04 (guide GGCGGTCGCGGCGCTTAGGG; listed as DNA, chemistry not fully specified)",0.5401,−0.0859,−0.08721,0.4352
"COX11_ + _53045977.23-P1P2_05 (guide GGCTCTGGCGTCTTGGATGG; listed as DNA, chemistry not fully specified)",0.3613,−0.0555,−0.108,0.3055
"EIF2S1_ −_67827080.23-P1P2_02 (guide GAGCGCAGCGCACGCTGAGG; listed as DNA, chemistry not fully specified)",0.8838,−0.7288,−0.4556,0.8055
"POLR2H_ + _184081251.23-P1P2_11 (guide GGGGCCACGAGAGCAGCGGA; listed as DNA, chemistry not fully specified)",0.8554,−0.9966,−0.5467,0.8672
"RPL9_ + _39460483.23-P1P2_07 (guide GGATGTTTCTGCGCTCGTGG; listed as DNA, chemistry not fully specified)",0.3095,−0.2924,−0.2073,0.2627
"RPS14_ + _149829238.23-P1P2_04 (guide GAGGCCCGCGCGCGACAATC; listed as DNA, chemistry not fully specified)",0.3919,−0.3025,−0.1958,0.3825
"ALDOA_ + _30077139.23-P1P2_06 (guide GGTCACCAGGATCCCTTCTG; listed as DNA, chemistry not fully specified)",0.951,−0.3967,−0.3485,0.9611
"EIF2S1_ −_67827080.23-P1P2_06 (guide GAGCGAAGCGCGCGCTGAGG; listed as DNA, chemistry not fully specified)",0.7051,−0.6688,−0.3635,0.7393
"BCR_ + _23523092.23-P1P2_00 (guide GCGCGCGGGGCCCGTCTCAG; listed as DNA, chemistry not fully specified)",1,−0.8426,−0.5068,1
"GINS1_ −_25388381.23-P1P2_14 (guide GGACTAGAACGAAAGGAGCG; listed as DNA, chemistry not fully specified)",0.3662,−0.3535,−0.2609,0.3537
"ATP5E_ −_57607036.23-P1P2_01 (guide GGTGTCCTGGGGCACTCTGT; listed as DNA, chemistry not fully specified)",1.016,−0.2097,−0.2284,1.185
"ALDOA_ + _30077139.23-P1P2_13 (guide GGTCACCAGGACCCCTTTTG; listed as DNA, chemistry not fully specified)",0.0006011,0.01706,−0.0002203,−0.04134
"ALDOA_ + _30077139.23-P1P2_14 (guide GGTCACCAGGACCGCTTCTG; listed as DNA, chemistry not fully specified)",0.4274,−0.1752,−0.1566,0.4246
"RPL9_ + _39460483.23-P1P2_01 (guide GGATGATTCTGTGCTCGTGG; listed as DNA, chemistry not fully specified)",0.7441,−0.8528,−0.4984,0.7661
"GNB2L1_ + _180670873.23-P1P2_00 (guide GTGCAAGGCGGCGGCAGGAG; listed as DNA, chemistry not fully specified)",1,−0.2908,−0.3054,1
"RPL9_ + _39460483.23-P1P2_05 (guide GGATGTTTCGGTGCTCGTGG; listed as DNA, chemistry not fully specified)",0.5745,−0.6073,−0.3848,0.5456
"BCR_ + _23523092.23-P1P2_07 (guide GCGCGCGGGGCTCGTCTCAG; listed as DNA, chemistry not fully specified)",0.9607,−0.8707,−0.4869,1.033

Substance,relative_activity_day10 (K562 CRISPRi cells [1]),gamma_day5 (K562 CRISPRi cells [2]),gamma_day10 (K562 CRISPRi cells [2]),relative_activity_day5 (K562 CRISPRi cells [2])
"DBR1_ + _137893744.23-P1P2_00 (guide GTTTGCAGGAGTCTACACCC; listed as DNA, chemistry not fully specified)",1,−0.4556,−0.4893,1
"POLR2H_ + _184081251.23-P1P2_12 (guide GGGGCCACGAGAGCAGGAGA; listed as DNA, chemistry not fully specified)",0.3595,−0.3516,−0.2298,0.306
"RAN_ + _131356438.23-P1P2_03 (guide GGGGGTCGCTGCGCTTAGGG; listed as DNA, chemistry not fully specified)",1.22,−0.2162,−0.197,1.095
"TUBB_ + _30688126.23-P1_03 (guide GCGGCAGCAAGGTTCTGAGA; listed as DNA, chemistry not fully specified)",0.7085,−0.6926,−0.4959,0.7721
"HSPE1_ + _198365089.23-P1P2_02 (guide GGAGACTGGCAGTCCGGCCC; listed as DNA, chemistry not fully specified)",0.6285,−0.4365,−0.3565,0.622
"EIF2S1_ −_67827080.23-P1P2_01 (guide GAGCGAAACGCACGCTGAGG; listed as DNA, chemistry not fully specified)",0.5881,−0.4467,−0.3032,0.4937
"HSPA9_ −_137911079.23-P1P2_08 (guide GGAGCTGCTCGATGCGGTGG; listed as DNA, chemistry not fully specified)",0.4688,−0.3582,−0.2762,0.3771
"GATA1_ −_48645022.23-P1P2_08 (guide GTGAGCTTTCCACATCCCCA; listed as DNA, chemistry not fully specified)",0.7953,−0.7632,−0.4893,0.7928
"DBR1_ + _137893744.23-P1P2_05 (guide GTTTGCAGGAGTGTACACCC; listed as DNA, chemistry not fully specified)",0.6323,−0.3102,−0.3094,0.6809
"RPS15_ −_1438413.23-P1P2_07 (guide GACCAAAGCGGTCTCTTCTG; listed as DNA, chemistry not fully specified)",0.8176,−0.5221,−0.3074,0.8404
"HSPA9_ −_137911079.23-P1P2_00 (guide GGAGCTGCGCGATGCGGTGG; listed as DNA, chemistry not fully specified)",1,−0.95,−0.5892,1
"HSPE1_ + _198365089.23-P1P2_01 (guide GGAGACACGCAGTCCGGCCC; listed as DNA, chemistry not fully specified)",0.8523,−0.616,−0.4834,0.8777
"POLR1D_ + _28196016.23-P1_01 (guide GGGAAGCCAGGACCGACCGA; listed as DNA, chemistry not fully specified)",0.8718,−0.6945,−0.5416,0.9145
"HSPA9_ −_137911079.23-P1P2_07 (guide GGAGCTGCGGGATGCGGTGG; listed as DNA, chemistry not fully specified)",0.8547,−0.8109,−0.5036,0.8537
"GINS1_ −_25388381.23-P1P2_03 (guide GGACTATAACGAAAGGAGTG; listed as DNA, chemistry not fully specified)",0.6733,−0.7467,−0.4797,0.7472
"CAD_ + _27440280.23-P1P2_07 (guide GGCTGGAGCGAAGCCGGGCG; listed as DNA, chemistry not fully specified)",0.6811,−0.6026,−0.4659,0.7812
